Legend:
[1] = tested on: cortical pyramidal neurons; experiment: Whole-cell patch clamp recording of spontaneous synaptic current (SPSC) in brain slices; format: cell-based; conditions: 30 μmol/L compound incubation, 10 μmol/L 5-HT; mouse brain slices
Procedure: 5-HT receptors play important roles in central and peripheral nervous systems. Malfunctions of these receptors have been linked to many neural disorders such as depression and psychosis. The effect of (–)-crebanine on changes in 5-HT induced synaptic transmission was evaluated by electrophysiological recording of mouse brain slices (Jang et al. [2012]). The spontaneous synaptic current (SPSC) of cortical pyramidal neurons was recorded in whole cell mode.
Cortical slices from ICR mouse of both genders (15–21 days) were prepared for electrophysiological recording. In brief, the animals were decapitated and brains were placed in cold sucrose artificial cerebrospinal fluid (sucrose-ASCF, in mmol/L: sucrose 213, KCl 2.5, NaH2PO4 1.25, NaHCO3 26, D-glucose 10, MgSO4 2, CaCl2 2, pH 7.4, 0–4 °C, saturated with 95% O2 and 5% CO2). The brains were cut into 280 or 300 μm slices with a vibratome (Leica VT1200S, Germany); slices were then incubated with ACSF (in mmol/L: NaCl 126, KCl 2.5, NaH2PO4 1.25, NaHCO3 26, D-glucose 25, MgSO4 2, CaCl2 2, pH 7.4, saturated with 95% O2 and 5% CO2) at room temperature for 1 h.
A whole-cell patch clamp technique was used. […] Activity of cortical pyramidal neurons was recorded using an amplifier (HEKA EPC 10 USB, Germany) in the voltage clamp mode. […]

[2] = target: T1, 5-HT2C receptor A222^5.46V (Homo sapiens, UniProt P28335, A222V/DEL255-298/G251D/H250E/H252N/INS299[…]/L248D/M247A/M300L/T253W); experiment: Affinity MS assay, 5-HT2C mutant A222V; format: binding; conditions: mutant A222^5.46V, n = 2
T1 construct: the N- and C-terminals were truncated by 39 and 65 residues, respectively; PreScission protease site + 10× His (C); made in house
From the text: (§1) Based on the binding poses predicted by molecular docking, single-point mutations were designed to test their impact on ligand binding. Mutations of several residues include the highly conserved Asp134^3.32, which is known to cause 5-HT1B or 5-HT2B receptors to abolish the monoamine ligand binding as reported in the literature (Wang et al. [2013]). In this study, residues forming hydrophobic interactions with the substitution groups on the aporphine scaffold of (–)-crebanine (1) were selected for mutation as well and they are Thr139^3.37, Gly218^5.42, Ala222^5.46, and Leu209^ECL2. Effects of those mutations were tested with the CPM assay and the affinity MS assay (Table 2). In the affinity MS experiment, relative ligand-binding capacity (represented by binding %) to different mutants and the wild-type receptor was compared. Among the six mutations tested, five of them reduced the binding of (–)-crebanine (1) by more than 40% relative to binding to the wild-type receptor, displaying the importance of hydrophobic interactions. […]
(§2) Four experimental replicates were prepared for each pair of the test ligand and the negative control. […] S/C ratios refer to the ratio of MS response of a specific ligand detected in the 5-HT2C incubation sample versus the control. […]

[3] = target: T2, 5-HT2C receptor L209^ECL2F (Homo sapiens, UniProt P28335, DEL255-298/G251D/H250E/H252N/INS299[…]/L209F/L248D/M247A/M300L/T253W); experiment: Affinity MS assay, 5-HT2C mutant L209F; format: binding; conditions: n = 2
T2 construct: the N- and C-terminals were truncated by 39 and 65 residues, respectively; PreScission protease site + 10× His (C); made in house
From the text: as §1, §2

T1 sequence (P28335 with tags, fused parts or gaps with the stated changes): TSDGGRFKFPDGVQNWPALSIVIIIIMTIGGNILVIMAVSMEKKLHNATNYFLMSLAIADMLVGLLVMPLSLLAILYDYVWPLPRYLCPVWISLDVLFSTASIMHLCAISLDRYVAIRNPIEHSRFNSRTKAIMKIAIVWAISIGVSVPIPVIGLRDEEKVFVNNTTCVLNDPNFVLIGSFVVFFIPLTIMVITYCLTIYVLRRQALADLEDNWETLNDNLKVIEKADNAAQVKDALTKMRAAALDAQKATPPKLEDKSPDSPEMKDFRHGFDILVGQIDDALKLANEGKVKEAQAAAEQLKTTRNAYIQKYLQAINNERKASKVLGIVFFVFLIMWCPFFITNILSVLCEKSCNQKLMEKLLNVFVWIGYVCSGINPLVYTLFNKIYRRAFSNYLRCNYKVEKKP
T2 sequence (P28335 with tags, fused parts or gaps with the stated changes): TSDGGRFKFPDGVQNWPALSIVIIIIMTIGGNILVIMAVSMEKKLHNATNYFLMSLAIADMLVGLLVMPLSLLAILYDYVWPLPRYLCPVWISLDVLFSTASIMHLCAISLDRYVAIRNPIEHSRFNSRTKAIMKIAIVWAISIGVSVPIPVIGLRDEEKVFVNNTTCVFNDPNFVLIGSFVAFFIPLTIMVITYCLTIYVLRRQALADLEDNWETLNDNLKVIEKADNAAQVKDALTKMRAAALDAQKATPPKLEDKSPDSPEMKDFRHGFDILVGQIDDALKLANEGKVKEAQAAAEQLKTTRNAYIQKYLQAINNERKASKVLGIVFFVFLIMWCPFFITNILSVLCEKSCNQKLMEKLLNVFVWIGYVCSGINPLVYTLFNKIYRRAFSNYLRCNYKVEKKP

COc1ccc2c(c1OC)C[C@@H]1c3c(cc4c(c3-2)OCO4)CCN1C [Compound 1, (–)-crebanine]
effect on 5-HT induced SPSC [1]: significantly attenuated | (–)-Crebanine/MS relative ligand binding [2]: 25.84% | (–)-Crebanine/MS relative ligand binding [3]: 13.22%

Reference: publication PMC5860131, “Identification of natural products as novel ligands for the human 5-HT2C receptor” (Biophysics Reports, 2018)
